# According to ChEMBL document CHEMBL1143657, “Saucerneol B derivatives as human acyl-CoA: cholesterol acyltransferase inhibitors” (Bioorg Med Chem Lett, 2005):
# Target: T1, Sterol O-acyltransferase 1 (Homo sapiens) (UniProt P35610)
# T1 sequence (whole entry): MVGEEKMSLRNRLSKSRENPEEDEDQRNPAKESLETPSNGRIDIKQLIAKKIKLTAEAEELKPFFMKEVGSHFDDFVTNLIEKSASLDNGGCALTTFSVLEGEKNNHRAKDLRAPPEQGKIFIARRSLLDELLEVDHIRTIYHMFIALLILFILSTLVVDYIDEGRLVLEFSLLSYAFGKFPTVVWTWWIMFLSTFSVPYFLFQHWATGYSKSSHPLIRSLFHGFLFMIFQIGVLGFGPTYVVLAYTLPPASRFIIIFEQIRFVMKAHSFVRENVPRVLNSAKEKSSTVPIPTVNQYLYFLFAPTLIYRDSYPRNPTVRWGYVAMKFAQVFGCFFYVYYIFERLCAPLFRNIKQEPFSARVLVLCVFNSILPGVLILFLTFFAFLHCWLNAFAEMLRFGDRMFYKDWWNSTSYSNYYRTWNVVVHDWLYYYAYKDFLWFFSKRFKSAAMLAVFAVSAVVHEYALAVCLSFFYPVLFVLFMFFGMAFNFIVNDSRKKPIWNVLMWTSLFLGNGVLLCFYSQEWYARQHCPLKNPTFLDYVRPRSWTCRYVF
# Assay: In vitro inhibition of human Acyl coenzyme A:cholesterol acyltransferase 1 expressed in Hi5 cells
# Conditions: BTI-TN-5B1-4, concentration not given here
row,SMILES,inhibition [%]
1,CCCCCCCCOC(c1ccc2c(c1)OCO2)C(OC)Oc1ccc([C@H]2O[C@@H](c3ccc(OC)c(OC)c3)[C@@H](C)[C@H]2C)cc1OC (some centres not stated),44
2,CCCCCCCCCOC(c1ccc2c(c1)OCO2)C(OC)Oc1ccc([C@H]2O[C@@H](c3ccc(OC)c(OC)c3)[C@@H](C)[C@H]2C)cc1OC (some centres not stated),25

# Target: T2, Sterol O-acyltransferase 2 (Homo sapiens) (UniProt O75908)
# T2 sequence (whole entry): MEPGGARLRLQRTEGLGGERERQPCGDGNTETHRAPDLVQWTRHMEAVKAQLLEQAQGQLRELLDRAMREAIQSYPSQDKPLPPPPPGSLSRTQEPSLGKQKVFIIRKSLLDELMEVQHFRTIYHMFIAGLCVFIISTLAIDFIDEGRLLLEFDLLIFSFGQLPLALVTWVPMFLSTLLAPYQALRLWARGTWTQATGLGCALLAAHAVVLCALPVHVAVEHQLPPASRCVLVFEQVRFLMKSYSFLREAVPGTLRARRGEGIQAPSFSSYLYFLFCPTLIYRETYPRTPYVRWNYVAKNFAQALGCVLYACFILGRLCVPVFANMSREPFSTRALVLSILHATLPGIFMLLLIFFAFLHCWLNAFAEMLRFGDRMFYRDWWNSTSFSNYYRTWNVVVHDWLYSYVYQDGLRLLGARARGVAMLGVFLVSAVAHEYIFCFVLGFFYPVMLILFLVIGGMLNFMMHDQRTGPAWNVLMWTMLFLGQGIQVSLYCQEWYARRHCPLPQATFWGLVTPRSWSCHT
# Assay: In vitro inhibition of human Acyl coenzyme A:cholesterol acyltransferase 2 expressed in Hi5 cells at 125 uM
# Conditions: BTI-TN-5B1-4
row,SMILES,inhibition [%]
1,CCCCCCCCOC(c1ccc2c(c1)OCO2)C(OC)Oc1ccc([C@H]2O[C@@H](c3ccc(OC)c(OC)c3)[C@@H](C)[C@H]2C)cc1OC (some centres not stated),19
2,CCCCCCCOC(c1ccc2c(c1)OCO2)C(OC)Oc1ccc([C@H]2O[C@@H](c3ccc(OC)c(OC)c3)[C@@H](C)[C@H]2C)cc1OC (some centres not stated),26
3,CCCCCCCCCOC(c1ccc2c(c1)OCO2)C(OC)Oc1ccc([C@H]2O[C@@H](c3ccc(OC)c(OC)c3)[C@@H](C)[C@H]2C)cc1OC (some centres not stated),10
4,CCCCOC(c1ccc2c(c1)OCO2)C(OC)Oc1ccc([C@H]2O[C@@H](c3ccc(OC)c(OC)c3)[C@@H](C)[C@H]2C)cc1OC (some centres not stated),28
5,CCCCCOC(c1ccc2c(c1)OCO2)C(OC)Oc1ccc([C@H]2O[C@@H](c3ccc(OC)c(OC)c3)[C@@H](C)[C@H]2C)cc1OC (some centres not stated),33
6,CCCOC(c1ccc2c(c1)OCO2)C(OC)Oc1ccc([C@H]2O[C@@H](c3ccc(OC)c(OC)c3)[C@@H](C)[C@H]2C)cc1OC (some centres not stated),33
7,CCOC(c1ccc2c(c1)OCO2)C(OC)Oc1ccc([C@H]2O[C@@H](c3ccc(OC)c(OC)c3)[C@@H](C)[C@H]2C)cc1OC (some centres not stated),29
8,CCCCCCOC(c1ccc2c(c1)OCO2)C(OC)Oc1ccc([C@H]2O[C@@H](c3ccc(OC)c(OC)c3)[C@@H](C)[C@H]2C)cc1OC (some centres not stated),33
9,COc1ccc([C@@H]2O[C@H](c3ccc(OC(OC)C(OC)c4ccc5c(c4)OCO5)c(OC)c3)[C@H](C)[C@@H]2C)cc1OC (some centres not stated),45

# Target: T3, Sterol O-acyltransferase 2 (Homo sapiens, UniProt O75908)
# T3 sequence (O75908 whole entry): T2 sequence (whole entry)
# Assay: In vitro inhibitory concentration against human Acyl coenzyme A:cholesterol acyltransferase 2 expressed in Hi5 cells
# Set-up: species or system BTI-TN-5B1-4
# Conditions: not given
row,SMILES,IC50 [µM]
1,COc1ccc(C(O)C(C)Oc2ccc([C@H]3O[C@H](c4ccc(OC(C)C(O)c5ccc(OC)c(OC)c5)c(OC)c4)[C@H](C)[C@H]3C)cc2OC)cc1OC (some centres not stated),8
